Experimental data reported in PubChem BioAssay (NCI).
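Step 1: Grow cells in 96-well plates. Step 2: Expose to compound for 48 hours at 5 concentrations. Step 3: Interpolate endpoints linearly; if unreached, use highest concentration. GI50 = concentration required for 50% inhibition of growth. At the TGI there is no net growth.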

Tests used:
Assay in all cases: NCI anticancer screen, dose series, 48 h
A498 renal = test system: A498 renal
COLO 205 colon = test system: COLO 205 colon
HOP-62 NSCLC = test system: HOP-62 NSCLC
HOP-92 NSCLC = test system: HOP-92 NSCLC
OVCAR-8 ovarian = test system: OVCAR-8 ovarian
SN12C renal = test system: SN12C renal
SNB-19 CNS = test system: SNB-19 CNS
U251 CNS = test system: U251 CNS
UO-31 renal = test system: UO-31 renal
NCI-H522 lung = test system: NCI-H522 lung

Row | Structure (SMILES) | TGI (A498 renal) [µM] | TGI (COLO 205 colon) [µM] | TGI (HOP-62 NSCLC) [µM] | TGI (HOP-92 NSCLC) [µM] | TGI (OVCAR-8 ovarian) [µM] | TGI (SN12C renal) [µM] | TGI (SNB-19 CNS) [µM] | TGI (U251 CNS) [µM] | TGI (UO-31 renal) [µM] | GI50 (A498 renal) [µM] | GI50 (HOP-62 NSCLC) [µM] | GI50 (HOP-92 NSCLC) [µM] | GI50 (NCI-H522 lung) [µM] | TGI (NCI-H522 lung) [µM] | GI50 (OVCAR-8 ovarian) [µM] | GI50 (SN12C renal) [µM] | GI50 (SNB-19 CNS) [µM] | GI50 (U251 CNS) [µM] | GI50 (UO-31 renal) [µM] | GI50 (COLO 205 colon) [µM]
1 | CCOC(=O)C(=O)Nc1nc2ccc(OC)cc2s1 | > 100 | > 100 | > 100 | > 100 | > 100 | > 100 | > 100 | > 100 | > 100 | – | – | – | – | – | – | – | – | – | – | –
2 | Nc1nc2c([nH]1)c1[nH]c3ccccc3c1c1[nH]c3ccccc3c21 | 35 | – | 27.3 | 22.2 | 23.7 | 29.7 | 25.5 | 14.3 | 22.9 | 18.8 | 13.8 | 9.12 | 17.2 | 34.1 | 4.56 | 15.3 | 12.8 | 3.99 | 11 | –
3 | Cc1ccc(-n2cc(/C(N)=N/O)c3ccccc3c2=O)cc1 | – | > 100 | > 100 | – | > 100 | > 100 | > 100 | > 100 | > 100 | – | – | – | – | > 100 | – | – | – | – | – | –
4 | CC[C@]1(O)C[C@@H]2CN(CCc3c([nH]c4ccccc34)[C@@](C(=O)OC)(c3cc4c(cc3OC)N(C)[C@H]3[C@@](O)(C(=O)OC)[C@H](OC(=O)CCCBr)[C@]5(CC)C=CCN6CC[C@]43[C@@H]65)C2)C1 | < 0.0258 | – | > 100 | 3.53 | > 100 | > 100 | > 100 | > 100 | 6.55 | < 0.0114 | 0.0386 | 0.0877 | – | – | < 0.0209 | 0.046 | < 0.0215 | 0.0334 | 0.196 | –
5 | Cc1ccc(/C=C2\CCCC(C(NO)c3ccc(C)cc3)C2=NO)cc1 (centres undefined) | > 100 | 38.5 | > 100 | – | > 100 | 38.8 | > 100 | > 100 | > 100 | – | – | – | – | 76.1 | – | – | – | – | – | –
6 | COc1cc2ccc(CC(=O)O)cc2cc1OC | > 100 | > 100 | > 100 | – | > 100 | > 100 | > 100 | > 100 | > 100 | – | – | – | – | > 100 | – | – | – | – | – | –
7 | CC1(C)O[C@@H](CCl)C[C@@H](C#N)O1 | > 100 | > 100 | > 100 | > 100 | > 100 | – | > 100 | > 100 | > 100 | – | – | – | – | > 100 | – | – | – | – | – | –
8 | CC(C)(C)OC(=O)CC(S(=O)(=O)c1ccccc1)S(=O)(=O)c1ccccc1 | 26.4 | 3.32 | 35.4 | – | 23.3 | 29.6 | > 100 | 35.9 | 10.4 | 13.2 | 19.1 | – | 1.65 | 3.53 | 8.32 | 15.4 | > 100 | 17.2 | 2.9 | 1.89
9 | CN(C)CCC(/C=C/c1ccccc1)=N\Nc1c(F)c(F)c(F)c(F)c1F | > 100 | > 100 | > 100 | – | > 100 | > 100 | > 100 | > 100 | > 100 | – | – | – | – | > 100 | – | – | – | – | – | –
10 | Cc1cc(=O)[nH]c2c1C(=O)c1c(C)cc(=O)n(C)c1C2=O | 0.36 | 0.037 | 0.0999 | – | 0.207 | 0.195 | 0.0358 | 0.242 | 0.318 | – | – | – | – | 0.187 | – | – | – | – | – | –
11 | O=C(NCCOC(=O)CCCCCCCCC(=O)OCCNC(=O)NC(=O)c1cn(Cc2ccccc2)c(=O)[nH]c1=O)NC(=O)c1cn(Cc2ccccc2)c(=O)[nH]c1=O | > 100 | > 100 | > 100 | – | > 100 | > 100 | > 100 | > 100 | > 100 | – | – | – | – | > 100 | – | – | – | – | – | –
12 | CC1(C)N=C(N)N=C(N)N1c1ccc(CCCCCCc2ccc(S(=O)(=O)F)cc2)cc1 | – | 12.8 | 15.8 | 3.15 | 7.01 | 7.02 | 5.17 | 16.6 | 29.5 | – | – | – | – | 20.2 | – | – | – | – | – | –
13 | COc1cc(COC(=O)N(C)[C@@H](Cc2ccccc2)C(=O)O)c([N+](=O)[O-])cc1OC | – | – | > 100 | > 100 | > 100 | > 100 | > 100 | > 100 | > 100 | – | – | – | – | – | – | – | – | – | – | –
14 | CCOC(=O)c1cnc2c(ccc3ncccc32)c1OCC | > 100 | > 100 | > 100 | – | > 100 | > 100 | > 100 | > 100 | > 100 | – | – | – | – | > 100 | – | – | – | – | – | –
15 | O=C(N[C@H]1CC2(C=C(I)C(=O)C(I)=C2)OC1=O)OCc1ccccc1 | > 100 | 28.1 | 45.6 | – | 31.3 | 32.3 | 47.6 | 31.5 | 32.1 | – | – | – | – | 26.2 | – | – | – | – | – | –
16 | CCOc1ccc(N=Nc2c(-c3ccccc3)nn(C(=O)CC(=O)Nc3ccccc3Cl)c2-c2ccccc2)cc1 | – | > 100 | > 100 | > 100 | > 100 | > 100 | > 100 | > 100 | > 100 | – | – | – | – | > 100 | – | – | – | – | – | –
17 | COc1cc([N+](=O)[O-])c(S(=O)(=O)O)cc1-[n+]1nc(C(=O)Nc2ccccc2)nn1-c1ccc([N+](=O)[O-])c(S(=O)(=O)[O-])c1 | – | > 100 | > 100 | – | – | > 100 | > 100 | > 100 | > 100 | – | – | – | – | > 100 | – | – | – | – | – | –
18 | COc1ccc(S(=O)(=O)NNS(C)(=O)=O)cc1OC | > 100 | > 100 | > 100 | – | > 100 | > 100 | > 100 | > 100 | > 100 | – | – | – | – | > 100 | – | – | – | – | – | –
19 | O=S1(=O)CS(=O)(=O)OCCCCCO1 | > 100 | > 100 | – | > 100 | > 100 | > 100 | > 100 | > 100 | > 100 | – | – | – | – | > 100 | – | – | – | – | – | –
20 | Cc1ncc([N+](=O)[O-])n1CCOc1ccc(C(=O)/C=C/c2ccc(C(F)(F)F)cc2)cc1 | 20.2 | 4.67 | 7.29 | – | 5.57 | 11.6 | 15.7 | 3.08 | 2.87 | 6.57 | 2.53 | – | 2.55 | 7.74 | 2.09 | 3.03 | 3.34 | 1.51 | 1.48 | 2.11
